Drawing on patent US6673834B2, “Hydroperylene derivatives” (priority 2001, dated 2004), this text covers IC50, Stability and Solubility for five molecules.

Read-outs that look alike come from different tables or passages of the source. Bounds are passed on as bounds.

One series has as its system thrombocytes. Briefly: Test for inhibition of thrombocyte aggregation (turbidimetric, Born; aggregometer PAP 4). Format: cell-based. The following applies: read-out: IC50 (platelet aggregation). An excerpt:
The inhibition of platelet aggregation can be measured, inter alia, by determining platelet aggregation turbimetrically as described by Born (Born, GV, Nature, 1962,194: 927-929).
(§1) Principle of the test: the method is based on the property that the optical density of a particle suspension depends on the […]. After a platelet suspension has been stimulated, the platelets begin to aggregate. This leads to the appearance of relatively large platelet aggregates and to an increase in light transmission. This increase is registered photometrically, and recorded in curve form, continuously. The degrees to which the thrombocytes can be aggregated, or to which this aggregation can be inhibited, can be deduced from the changes in light transmission. The method of staining cells with calcein was used for determining cytotoxicity (Hollo Z et al., Biochim Biophys Acta 11;1191(2):384-8, 1994). Living cells incorporate the substrate calcein acetoxymethyl ester (C-AM), which is hydrolyzed in the cells by nonspecific esterases. […] In the living cell, it is converted into the fluorescent hydrolysis product and the vitality of the cells can be measured on the basis of the fluorescence (λex:485 nm/λem:538 nm).
By way of example, Table 2 summarizes the inhibitory effects of some hydroperylene derivatives as IC50 values. The IC50 value indicates the concentration which inhibits thrombocyte aggregation by 50% under defined conditions.
Test for Inhibition of Thrombocyte Aggregation
The assay was carried out as follows:
Final concentration of activator: 0.05 U of thrombin/ml or 1 μg of collagen/ml
Aggregation in Aggregometer (PAP 4)
Cell number, 3×10^5 thrombocytes/μl
The blank value for the channels of the aggregometer is first of all adjusted using buffer. The thrombocytes are then pipetted into microtubes and, after the thrombocytes have been added, heated at 37° C. for a few minutes in the aggregometer. After a magnetic stirrer has been added to each reaction tube, the substances, and CaCl2, are added and a start is made in recording the course of the curve in the aggregometer. After 2 minutes of incubation, the activator, or buffer in the case of the control, is added. The course of the curve is then recorded for a further 6 min at 37° C. and at a stirrer speed of 1050 revolutions per minute.

A further series concerns cells. Briefly: Cytotoxicity by staining cells with calcein (calcein AM fluorescence). Format: cell-based. The following applies: read-out: IC50 (toxicity).
Source text: as §1

The nature of series [1]: Stability of thioperylenol in solution. The class given is physicochemical. The source says:
(§2) The physicochemical and spectroscopic properties of thioperylenol can be summarized as follows:
(§3) Brownish crystals which are soluble in medium-polar and polar organic solvents and soluble in aqueous neutral buffers. Stable in neutral and mildly acidic, non-oxidizing medium but unstable in strongly acidic and strongly alkaline solution.

The nature of series [2]: Solubility of thioperylenol. The class given is physicochemical.
Source text: as §2, §3

[3] abbreviates: concentration which inhibits thrombocyte aggregation by 50%, activator 0.05 U of thrombin/ml or 1 μg of collagen/ml, 37° C.
[4] abbreviates: cell toxicity, calcein AM staining.

Consider Altertoxin III, for which the IC50 (commonly the midpoint of a concentration-inhibition curve) is 6.1 µM in the series on thrombocytes (setting [3]) and 20 µM with cells (setting [4]).
As to `O=C1CC(SCC(O)C(=O)O)[C@]2(O)c3c(ccc(O)c31)-c1ccc(O)c3c1C2C1OC1C3O` (some centres unmarked) [Thioperylenol, thioperylenol], the IC50 was 7.2 µM with thrombocytes (Platelet, concentration which inhibits thrombocyte aggregation by 50%, activator 0.05 U of thrombin/ml or 1 μg of collagen/ml, 37° C.) and 61 µM in the series with cells (setting [4]). The Stability entry in series [1] (neutral and mildly acidic, non-oxidizing medium) was “Stable”; in series [1] (strongly acidic and strongly alkaline solution) it was “unstable”. Also, the Solubility entry is given as “soluble” in series [2] (aqueous neutral buffers); “soluble” in series [2] (medium-polar and polar organic solvents).
For `O=C1CCC2(O)c3c(ccc(O)c31)-c1ccc(O)c3c1C2C1OC1C3=O` (centres unmarked) [Altertoxin II], the IC50 with thrombocytes (setting [3]) is 2.6 µM; in the series on cells (setting [4]), 10 µM.
Regarding `O=C1C[C@@H](O)[C@H]2c3c(ccc(O)c31)-c1ccc(O)c3c1[C@]2(O)C=CC3=O` (stereo in doubt) [Alterperylenol], the IC50 in the series on thrombocytes (Platelet) is 1.6 µM; in the series with cells it was > 100 µM.
In the case of `O=C1C[C@H](O)[C@@H]2c3c(ccc(O)c31)-c1ccc(O)c3c1[C@@]2(O)CCC3=O` [Altertoxin I], the IC50 in the series with thrombocytes (setting [3]) was 29 µM; in the series with cells (setting [4]), > 100 µM.
